# Laboratory results published in patent US12091425B2 (AMGEN INC., priority 2016, dated 2024).
# Biological target: T1, Mcl-1/Bim interaction, recombinant human Mcl-1 (171-327) (Homo sapiens, UniProt Q07820)
# T1 construct: made in house
# Test: Cell free Mcl-1: Bim Affinity Assay (Mcl-1 HTRF)
# Format: binding
# Settings: TR-FRET, 0.1 nM Mcl-1 (171-327), 0.05 nM biotin-Bim (51-76)
# Description: Cell free Mcl-1: Bim Affinity Assay (Mcl-1 HTRF)
# The inhibition of the Mcl-1/Bim interaction was measured using a time-resolved fluorescence resonance energy transfer (TR-FRET) assay. […] A biotinylated peptide derived from human Bim (residues 51-76) was purchased from CPC Scientific (San Jose, CA). The TR-FRET assay was conducted in a 384-well white OptiPlatem (PerkinElmer, Waltham, MA) in a total volume of 40 μL. […] The reaction plates were further incubated overnight and then were read on an Envision® multimode reader (PerkinElmer). […] The IC50 values of test compounds were determined from duplicate data by analyzing competition curves using a four-parameter sigmoidal model in GraphPad Prism (GraphPad Software, San Diego, CA) or in Genedata Screener® (Genedata, Basel, Switzerland).
# T1 sequence (Q07820 171-327): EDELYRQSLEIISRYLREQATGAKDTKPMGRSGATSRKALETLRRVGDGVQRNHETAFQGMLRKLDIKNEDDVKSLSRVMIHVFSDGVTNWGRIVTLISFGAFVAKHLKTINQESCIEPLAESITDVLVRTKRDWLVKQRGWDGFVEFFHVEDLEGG
row,Compound,IC50
1,"COCC[C@@H]1CC/C=C/[C@H](O)[C@@H]2CC[C@H]2CN2C[C@@]3(CCCc4cc(Cl)ccc43)COc3ccc(cc32)C(=O)NS1(=O)=O (single isomer, unassigned) [Example 442]",0.292 nM
2,"N#C[C@@H]1CC/C=C\[C@H](O)[C@@H]2CC[C@H]2CN2C[C@@]3(CCCc4cc(Cl)ccc43)COc3ccc(cc32)C(=O)NS1(=O)=O (single isomer, unassigned) [Example 153]",1.22 nM
3,"COC[C@@H]1CC/C=C/[C@H](OC)[C@@H]2CC[C@H]2CN2C[C@@]3(CCCc4cc(Cl)ccc43)COc3ccc(cc32)C(=O)NS1(=O)=O [Example 444, (1S,3′R,6′R,7′S,8′E,12′S)-6-chloro-7′-methoxy-12′-(methoxymethyl)-3,4-dihydro-2H,15′H-spiro[naphthalene-1,22′-[20]oxa[13]thia[1,14]diazatetracyclo[14.7.2.0^3,6.0^19,24]pentacosa [8,16,18,24]tetraen]-15′-one 13′,13′-dioxide]",0.785 nM
4,"O=C1NS(=O)(=O)C/C=C/CNC(=O)[C@@H]2CC[C@H]2CN2C[C@@]3(CCCc4cc(Cl)ccc43)COc3ccc1cc32 (single isomer, unassigned) [Example 97, (1S,3′R,6′R,10′E)-6-chloro-3,4-dihydro-2H,7′H,15′H-spiro[naphthalene-1,22′-[20]oxa[13]thia[1,8,14]triazatetracyclo[14.7.2.0^3,6.0^19,24]pentacosa[10,16,18,24]tetraen]-7′,15′-dione 13′,13′-dioxide or (1S,3′R,6′R,10′Z)-6-chloro-3,4-dihydro-2H,7′H,15′H-spiro[naphthalene-1,22′-[20]oxa[13]thia[1,8,14]triazatetracyclo[14.7.2.0^3,6.0^19,24]pentacosa[10,16,18,24]tetraen]-7′,15′-dione 13′,13′-dioxide]",12.6 nM
5,"CCN1CC/C=C/[C@H](OCC(=O)O)[C@@H]2CC[C@H]2CN2C[C@@]3(CCCc4cc(Cl)ccc43)COc3ccc(cc32)C(=O)NS1(=O)=O [Example 44, (((1S,3′R,6′R,7′S,8′E)-6-chloro-12′-ethyl-13′,13′-dioxido-15′-oxo-3,4-dihydro-2H-spiro[naphthalene-1,22′-[20]oxa[13]thia[1,12,14]triazatetracyclo[14.7.2.0^3,6.0^19,24]pentacosa[8,16,18,24]tetraen]-7′-yl)oxy)acetic Acid]",0.115 nM
6,"CCC[C@@H]1CC/C=C/[C@H](O)[C@@H]2CC[C@H]2CN2C[C@@]3(CCCc4cc(Cl)ccc43)COc3ccc(cc32)C(=O)NS1(=O)=O (single isomer, unassigned) [Example 434]",0.273 nM
7,"O=C1CCCS(=O)(=O)NC(=O)c2ccc3c(c2)N(C[C@@H]2CC[C@H]2CN1)C[C@@]1(CCCc2cc(Cl)ccc21)CO3 [Example 370, (1S,3′R,6′R)-6-chloro-3,4-dihydro-2H,9′H,15′H-spiro[naphthalene-1,22′-[20]oxa[13]thia[1,8,14]triazatetracyclo[14.7.2.0^3,6.0^19,24]pentacosa[16,18,24]triene]-9′,15′-dione 13′,13′-dioxide]",4.5 nM

# Other lines, results leading:
row,IC50,Compound
1,1.14 nM,"CC[C@@H]1CCCC[C@@H](NC(C)=O)[C@@H]2CC[C@H]2CN2C[C@@]3(CCCc4cc(Cl)ccc43)COc3ccc(cc32)C(=O)NS1(=O)=O [Example 1080, N-((1S,3′R,6′R,7′R,12′R)-6-chloro-12′-ethyl-13′,13′-dioxido-15′-oxo-3,4-dihydro-2H-spiro[naphthalene-1,22′-[20]oxa[13]thia[1,14]diazatetracyclo[14.7.2.0^3,6.0^19,24]pentacosa [16,18,24]trien]-7′-yl)acetamide]"
2,2.77 nM,"O=C1NS(=O)(=O)C[C@H](CO)C/C=C/[C@@H](O)[C@@H]2CC[C@H]2CN2C[C@@]3(CCCc4cc(Cl)ccc43)COc3ccc1cc32 (single isomer, unassigned) [Example 1090]"

# Same assay, conditions: cell free Mcl-1:Bim TR-FRET, recombinant human Mcl-1 (171-327)
row,Compound,IC50
1,"O=C1NS(=O)(=O)C[C@@H](C2CC2)C/C=C/[C@H](O)[C@@H]2CC[C@H]2CN2C[C@@]3(CCCc4cc(Cl)ccc43)COc3ccc1cc32 (single isomer, unassigned) [Example 684]",11 nM
2,"O=C1NS(=O)(=O)CC/C=C\[C@@H](O)C[C@@H]2CC[C@H]2CN2C[C@@]3(CCCc4cc(Cl)ccc43)COc3ccc1cc32 (single isomer, unassigned) [Example 883, (1S,3′R,6′S,8′S,9′Z)-6-chloro-8′-hydroxy-3,4-dihydro-2H,15′H-spiro[naphthalene-1,22′[20]oxa[13]thia[1,14]diazatetracyclo[14.7.2.0^3,6.0^19,24]pentacosa[9,16,18,24]tetraen]-15′-one 13′,13′-dioxide or (1S,3′R,6′S,8′R,9′Z)-6-chloro-8′-hydroxy-3,4-dihydro-2H,15′H-spiro[naphthalene-1,22′-[20]oxa[13]thia[1,14]diazatetracyclo[14.7.2.0^3,6.0^19,24]pentacosa [9,16,18,24]tetraen]-15′-one 13′,13′-dioxide]",48.5 nM
3,"O=C1NS(=O)(=O)CCCCCC(=NO)C2CCC2CN2CC3(CCCc4cc(Cl)ccc43)COc3ccc1cc32 (mixture of isomers) [Example 932, (1S,3′R,6′R,7′Z)-6-chloro-3,4-dihydro-2H,7′H,15′H-spiro[naphthalene-1,22′-[20]oxa[13]thia[1,14]diazatetracyclo[14.7.2.0^3,6.0^19,24]pentacosa [16,18,24]triene]-7,15′-dione 7-OXIME 13′,13′-dioxide and (1S,3′R,6′R,7′E)-6-chloro-3,4-dihydro-2H,7′H,15′H-spiro[naphthalene-1,22′-[20]oxa[13]thia[1,14]diazatetracyclo[14.7.2.0^3,6.0^19,24]pentacosa [16,18,24]triene]-7′,15′-dione 7-OXIME 13′,13′-dioxide]",3.69 nM
4,"O=C1NS(=O)(=O)CCC[C@@H](O)CC[C@@H]2CC[C@H]2CN2C[C@@]3(CCCc4cc(Cl)ccc43)COc3ccc1cc32 (single isomer, unassigned) [Example 503, (1S,3′R,6′S,9′S)-6-chloro-9′-hydroxy-3,4-dihydro-2H,15′H-spiro[naphthalene-1,22′-[20]oxa[13]thia[1,14]diazatetracyclo[14.7.2.0^3,6.0^19,24]pentacosa [16,18,24]trien]-15′-one 13′,13′-dioxide or (1S,3′R,6′S,9′R)-6-chloro-9′-hydroxy-3,4-dihydro-2H,15′H-spiro[naphthalene-1,22′-[20]oxa[13]thia[1,14]diazatetracyclo[14.7.2.0^3,6.0^19,24]pentacosa [16,18,24]trien]-15′-one 13′,13′-dioxide]",3.96 nM
5,"CC[C@@H]1CCCCC[C@H](O)[C@@H]2CC[C@H]2CN2C[C@@]3(CCCc4cc(Cl)ccc43)COc3ccc(cc32)C(=O)NS1(=O)=O [Example 554, (1S,3′R,6′R,7′S,13′R)-6-chloro-13′-ethyl-7′-hydroxy-3,4-dihydro-2H,16′H-spiro[naphthalene-1,23′-[21]oxa[14]thia[1,15]diazatetracyclo[15.7.2.0^3,6.0^20,25]hexacosa[17,19,25]trien]-16′-one 14′,14′-dioxide]",1.83 nM
6,"O=C1NS(=O)(=O)C/C=C\CCC[C@@H]2CC[C@H]2CN2C[C@@]3(CCCc4cc(Cl)ccc43)COc3ccc1cc32 (single isomer, unassigned) [Example 497]",4 nM

# Further lines, results first:
row,IC50,Compound
1,8.46 nM,"O=C1NS(=O)(=O)CCCCC(O)C(O)C2CCC2CN2CC3(CCCc4cc(Cl)ccc43)COc3ccc1cc32 (single isomer, unassigned) [Example 857, (1S,3′R,6′R,7′R,8′R)-6-chloro-7′,8′-dihydroxy-3,4-dihydro-2H,15′H-spiro[naphthalene-1,22′-[20]oxa[13]thia[1,14]diazatetracyclo[14.7.2.0^3,6.0^19,24]pentacosa [16,18,24]trien]-15′-one 13′,13′-dioxide or (1S,3′R,6′R,7′S,8′S)-6-chloro-7′,8′-dihydroxy-3,4-dihydro-2H,15′H-spiro[naphthalene-1,22′-[20]oxa[13]thia[1,14]diazatetracyclo[14.7.2.0^3,6.0^19,24]pentacosa [16,18,24]trien]-15′-one 13′,13′-dioxide]"
2,6.81 nM,"O=C1NS(=O)(=O)CCCC[C@H](O)C[C@@H]2CC[C@H]2CN2C[C@@]3(CCCc4cc(Cl)ccc43)COc3ccc1cc32 (single isomer, unassigned) [Example 867, (1S,3′R,6′S,8′S)-6-chloro-8′-hydroxy-3,4-dihydro-2H,15′H-spiro[naphthalene-1,22′-[20]oxa[13]thia[1,14]diazatetracyclo[14.7.2.0^3,6.0^19,24]pentacosa[16,18,24]trien]-15′-one 13′,13′-dioxide or (1S,3′R,6′S,8′R)-6-chloro-8′-hydroxy-3,4-dihydro-2H,15′H-spiro[naphthalene-1,22′-[20]oxa[13]thia[1,14]diazatetracyclo[14.7.2.0^3,6.0^19,24]pentacosa[16,18,24]trien]-15′-one 13′,13′-dioxide]"
3,19.6 nM,"O=C1NS(=O)(=O)CCCCC[C@@H](NCC(F)(F)F)[C@@H]2CC[C@H]2CN2C[C@@]3(CCCc4cc(Cl)ccc43)COc3ccc1cc32 (single isomer, unassigned) [Example 930]"
4,26.4 nM,"O=C1NS(=O)(=O)CC/C=C/[C@@H]2CC[C@H]2CN2C[C@@]3(CCCc4cc(Cl)ccc43)COc3ccc1cc32 [Example 825, (1S,3′R,6′S, 7′E)-6-chloro-3,4-dihydro-2H,13′H-spiro[naphthalene-1,20′-[18]oxa[11]thia[1,12]diazatetracyclo[12.7.2.0^3,6.0^17,22]tricosa[7,14,16,22]tetraen]-13′-one 11′,11′-dioxide]"
5,4.33 nM,"O=C1NS(=O)(=O)CCC[C@]2(O)CCO[C@H](C2)[C@@H]2CC[C@H]2CN2C[C@@]3(CCCc4cc(Cl)ccc43)COc3ccc1cc32 (single isomer, unassigned) [Example 900]"
